Our source for the Relative Vmax, Ki and Km values is ChEMBL document CHEMBL1125568, “ATP-citrate lyase as a target for hypolipidemic intervention. Sulfoximine and 3-hydroxy-beta-lactam containing analogues of citric acid as potential tight-binding inhibitors” (J Med Chem, 1992).

The target of series [1] is T1, ATP-citrate synthase (Rattus norvegicus) (UniProt P16638).
T1 sequence (whole entry): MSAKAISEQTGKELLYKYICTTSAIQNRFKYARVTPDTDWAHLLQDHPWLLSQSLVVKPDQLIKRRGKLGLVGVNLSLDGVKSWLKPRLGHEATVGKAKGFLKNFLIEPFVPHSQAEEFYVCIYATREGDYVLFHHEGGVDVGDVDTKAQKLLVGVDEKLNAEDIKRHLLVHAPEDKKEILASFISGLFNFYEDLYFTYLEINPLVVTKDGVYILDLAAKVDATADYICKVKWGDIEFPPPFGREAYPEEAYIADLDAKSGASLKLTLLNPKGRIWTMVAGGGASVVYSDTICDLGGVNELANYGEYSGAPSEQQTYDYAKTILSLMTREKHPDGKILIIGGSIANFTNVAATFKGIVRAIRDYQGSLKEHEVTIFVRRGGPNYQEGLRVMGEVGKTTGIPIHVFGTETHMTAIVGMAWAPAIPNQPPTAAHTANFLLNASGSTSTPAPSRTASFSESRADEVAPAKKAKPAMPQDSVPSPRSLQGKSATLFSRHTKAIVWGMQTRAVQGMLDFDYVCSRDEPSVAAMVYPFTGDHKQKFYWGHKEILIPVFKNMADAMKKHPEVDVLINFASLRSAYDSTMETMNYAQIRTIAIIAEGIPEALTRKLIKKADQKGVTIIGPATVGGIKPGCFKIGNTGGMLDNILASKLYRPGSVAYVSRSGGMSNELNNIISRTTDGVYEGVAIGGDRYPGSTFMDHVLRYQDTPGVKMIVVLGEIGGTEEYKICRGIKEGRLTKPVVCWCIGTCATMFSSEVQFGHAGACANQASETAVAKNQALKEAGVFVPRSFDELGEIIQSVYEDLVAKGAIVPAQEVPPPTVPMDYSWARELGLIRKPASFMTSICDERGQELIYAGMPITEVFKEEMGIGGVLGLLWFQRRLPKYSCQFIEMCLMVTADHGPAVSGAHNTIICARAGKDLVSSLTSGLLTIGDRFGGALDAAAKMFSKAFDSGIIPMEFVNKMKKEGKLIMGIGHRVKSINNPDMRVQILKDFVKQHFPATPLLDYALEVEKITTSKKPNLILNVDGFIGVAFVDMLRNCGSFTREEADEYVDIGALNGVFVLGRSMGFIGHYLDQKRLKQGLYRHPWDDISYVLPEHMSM
Put plainly: Inhibitory activity against rat ATP-Citrate lyase measured in terms of Vmax.

The next series concerns the target T2, ATP-citrate synthase (Rattus norvegicus, UniProt P16638).
T2 sequence (P16638 whole entry): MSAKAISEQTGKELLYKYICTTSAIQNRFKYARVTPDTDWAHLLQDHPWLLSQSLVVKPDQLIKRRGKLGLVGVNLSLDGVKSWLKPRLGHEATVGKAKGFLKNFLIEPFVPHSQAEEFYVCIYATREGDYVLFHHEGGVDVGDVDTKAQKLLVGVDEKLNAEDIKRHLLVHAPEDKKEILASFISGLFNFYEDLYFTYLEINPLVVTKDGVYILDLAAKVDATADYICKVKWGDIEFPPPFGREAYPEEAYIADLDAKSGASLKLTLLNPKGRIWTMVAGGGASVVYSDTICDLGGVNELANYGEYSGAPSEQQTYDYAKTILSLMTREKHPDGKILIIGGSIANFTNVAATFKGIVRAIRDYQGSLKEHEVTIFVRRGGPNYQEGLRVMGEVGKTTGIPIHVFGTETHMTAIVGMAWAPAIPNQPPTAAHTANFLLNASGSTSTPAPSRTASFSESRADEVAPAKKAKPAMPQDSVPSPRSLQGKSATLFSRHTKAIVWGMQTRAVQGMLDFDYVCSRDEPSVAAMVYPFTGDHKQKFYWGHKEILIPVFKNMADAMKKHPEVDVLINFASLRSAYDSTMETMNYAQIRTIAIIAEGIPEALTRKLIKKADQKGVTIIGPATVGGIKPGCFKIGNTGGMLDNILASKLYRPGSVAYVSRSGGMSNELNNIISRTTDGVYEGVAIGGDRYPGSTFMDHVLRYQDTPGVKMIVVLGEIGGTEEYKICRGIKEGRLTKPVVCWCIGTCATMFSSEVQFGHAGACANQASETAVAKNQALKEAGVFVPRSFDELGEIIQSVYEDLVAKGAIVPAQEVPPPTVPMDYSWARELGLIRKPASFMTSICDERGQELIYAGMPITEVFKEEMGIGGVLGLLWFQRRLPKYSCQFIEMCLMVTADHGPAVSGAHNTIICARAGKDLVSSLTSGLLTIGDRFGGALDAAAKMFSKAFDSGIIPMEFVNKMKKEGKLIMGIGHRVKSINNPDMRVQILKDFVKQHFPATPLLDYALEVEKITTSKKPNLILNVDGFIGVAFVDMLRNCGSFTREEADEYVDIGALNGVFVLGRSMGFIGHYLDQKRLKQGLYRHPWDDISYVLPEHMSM
Put plainly: Reversible binding Ki was measured by the inhibition of the carbon-carbon bond cleavage activity against rat ATP-Citrate Lyase.

Compound in series [2]: C[S+](=N)([O-])C[C@@](O)(CC(=O)O)C(=O)O
Nature of the series: Inhibitory activity against rat ATP-Citrate lyase measured in terms of Km.

Substrate in series [3]: O=C(O)CC(O)(CC(=O)O)C(=O)O

Take `C[S+](=N)([O-])C[C@@](O)(CC(=O)O)C(=O)O` (stereo in doubt; 12a) [listing 1 of 2 here]: the Relative Vmax in series [1] is 0.25. As usually defined, the Ki is the equilibrium dissociation constant of an inhibitor or competing ligand from its target. The low end stands for a stronger hold on the target, the high end for a looser hold on the target. With `C[S+](=N)([O-])C[C@@](O)(CC(=O)O)C(=O)O` (stereo in doubt; 12a) [listing 2 of 2 here], on ATP-citrate synthase, the affinity, expressed as Ki, was 0.25 mM. The molecule `O=C(O)C[C@H](C[C@]1(O)CNC1=O)C(=O)O` yielded a Ki on ATP-citrate synthase above 9 mM. In series [1], `C[S+](=N)([O-])C[C@@](O)(CC(=O)O)C(=O)O` (stereo in doubt; 12b) [listing 1 of 2 here] showed a Relative Vmax below 0.003.

Turning to `C[S+](=N)([O-])C[C@@](O)(CC(=O)O)C(=O)O` (stereo in doubt; 12b) [listing 2 of 2 here], the inhibition constant Ki on ATP-citrate synthase is above 10 mM.

The molecule `O=C(O)C[C@H](C[C@@]1(O)CNC1=O)C(=O)O` displayed a Ki at ATP-citrate synthase above 20 mM.

B1: ATP-citrate synthase (Rattus norvegicus), P16638 (protein)
chain: MSAKAISEQTGKELLYKYICTTSAIQNRFKYARVTPDTDWAHLLQDHPWLLSQSLVVKPDQLIKRRGKLGLVGVNLSLDGVKSWLKPRLGHEATVGKAKGFLKNFLIEPFVPHSQAEEFYVCIYATREGDYVLFHHEGGVDVGDVDTKAQKLLVGVDEKLNAEDIKRHLLVHAPEDKKEILASFISGLFNFYEDLYFTYLEINPLVVTKDGVYILDLAAKVDATADYICKVKWGDIEFPPPFGREAYPEEAYIADLDAKSGASLKLTLLNPKGRIWTMVAGGGASVVYSDTICDLGGVNELANYGEYSGAPSEQQTYDYAKTILSLMTREKHPDGKILIIGGSIANFTNVAATFKGIVRAIRDYQGSLKEHEVTIFVRRGGPNYQEGLRVMGEVGKTTGIPIHVFGTETHMTAIVGMAWAPAIPNQPPTAAHTANFLLNASGSTSTPAPSRTASFSESRADEVAPAKKAKPAMPQDSVPSPRSLQGKSATLFSRHTKAIVWGMQTRAVQGMLDFDYVCSRDEPSVAAMVYPFTGDHKQKFYWGHKEILIPVFKNMADAMKKHPEVDVLINFASLRSAYDSTMETMNYAQIRTIAIIAEGIPEALTRKLIKKADQKGVTIIGPATVGGIKPGCFKIGNTGGMLDNILASKLYRPGSVAYVSRSGGMSNELNNIISRTTDGVYEGVAIGGDRYPGSTFMDHVLRYQDTPGVKMIVVLGEIGGTEEYKICRGIKEGRLTKPVVCWCIGTCATMFSSEVQFGHAGACANQASETAVAKNQALKEAGVFVPRSFDELGEIIQSVYEDLVAKGAIVPAQEVPPPTVPMDYSWARELGLIRKPASFMTSICDERGQELIYAGMPITEVFKEEMGIGGVLGLLWFQRRLPKYSCQFIEMCLMVTADHGPAVSGAHNTIICARAGKDLVSSLTSGLLTIGDRFGGALDAAAKMFSKAFDSGIIPMEFVNKMKKEGKLIMGIGHRVKSINNPDMRVQILKDFVKQHFPATPLLDYALEVEKITTSKKPNLILNVDGFIGVAFVDMLRNCGSFTREEADEYVDIGALNGVFVLGRSMGFIGHYLDQKRLKQGLYRHPWDDISYVLPEHMSM
The term Km denotes the substrate concentration at which the rate is half of its maximum. Regarding B1, the Michaelis-Menten constant (Km) in series [2] was 1300 µM; in series [3], 110 µM.
